Reference: patent publication US10961309B2, “Reducing systemic regulatory T cell levels or activity for treatment of disease and injury of the CNS” (Yeda Research and Development Co. Ltd, priority 2014, dated 2021)
Entries after “also recorded” stand apart in the source; their conditions may differ.

Columns and labels:
[1] = tested on: CD11bhigh/CD45high mo-MΦ, CD4+ T cells, Foxp3+ Tregs in the brain; assay: Flow cytometry of brain parenchyma / hippocampus; format: in vivo, mouse
Method: Mice were transcardially perfused with PBS, and tissues were treated as previously described (Baruch et al, 2013). Brains were dissected and the different brain regions were removed under a dissecting microscope (Stemi DV4; Zeiss) in PBS, and tissues were dissociated using the gentleMACS™ dissociator (Miltenyi Biotec). Choroid plexus tissues were isolated from the lateral, third and fourth ventricles of the brain, incubated at 37° C. for 45 min in PBS (with Ca^2+/Mg^2+) containing 400 U/ml collagenase type IV (Worthington Biochemical Corporation), and then manually homogenized by pipetting. Spleens were mashed with the plunger of a syringe and treated with ACK (ammonium chloride potassium) lysing buffer to remove erythrocytes. In all cases, samples were stained according to the manufacturers' protocols. All samples were filtered through a 70 μm nylon mesh, and blocked with anti-Fc CD16/32 (1:100; BD Biosciences). For intracellular staining of IFN-γ, the cells were incubated with […] (10 ng/ml; Sigma-Aldrich) and ionomycin (250 ng/ml; Sigma-Aldrich) for 6 h, and Brefeldin-A (10 μg/ml; Sigma-Aldrich) was added for the last 4 h. Intracellular labeling of cytokines was done with BD Cytofix/Cytoperm™ Plus fixation/permeabilization kit (cat. no. 555028). For Treg staining, an eBioscience FoxP3 staining buffer set (cat. no. 00-5523-00) was used. The following fluorochrome-labeled monoclonal antibodies were purchased from BD Pharmingen, BioLegend, R&D Systems, or eBiosciences, and used according to the manufacturers' protocols: PE or Alexa Fluor 450-conjugated anti-CD4; PE-conjugated anti-CD25; PerCP-Cy5.5-conjugated anti-CD45; FITC-conjugated anti-TCRβ; APC-conjugated anti-IFN-γ; APC-conjugated anti-FoxP3; Brilliant-violet-conjugated anti-CD45. Cells were analyzed on an LSRII cytometer (BD Biosciences) using FlowJo software. In each experiment, relevant negative control groups, positive controls, and single stained samples for each tissue were used to identify the populations of interest and to exclude other populations.

[2] = tested on: choroid plexus leukocyte trafficking molecules (icam1, cxcl10, ccl2) and ifn-γ; assay: Choroid plexus (CP) mRNA expression by RT-qPCR; format: in vivo, mouse
Method: Total RNA of the hippocampal dentate gyrus (DG) was extracted with TRI Reagent (Molecular Research Center) and purified from the lysates using an RNeasy Kit (Qiagen). Total RNA of the choroid plexus was extracted using an RNA MicroPrep Kit (Zymo Research). mRNA (1 μg) was converted into cDNA using a High Capacity cDNA Reverse Transcription Kit (Applied Biosystems). The expression of specific mRNAs was assayed using fluorescence-based quantitative real-time PCR (RT-qPCR). RT-qPCR reactions were performed using Fast-SYBR PCR Master Mix (Applied Biosystems). Quantification reactions were performed in triplicate for each sample using the standard curve method. Peptidylprolyl isomerase A (ppia) was chosen as a reference (housekeeping) gene. The amplification cycles were 95° C. for 5 s, 60° C. for 20 s, and 72° C. for 15 s. […] For ifn-γ and ppia gene analysis, the cDNA was pre-amplified in 14 PCR cycles with non-random PCR primers, thereby increasing the sensitivity of the subsequent real-time PCR analysis, according to the manufacturer's protocol (PreAmp Master Mix Kit; Applied Biosystems). mRNA expression was determined using TaqMan RT-qPCR, according to the manufacturer's instructions (Applied Biosystems). All RT-qPCR reactions were performed and analyzed using StepOne software V2.2.2 (Applied Biosystems). […]

[3] = AD-Tg/DTR+ mice, 3 weeks after last DTx injection

Substance	Foxp3+ Tregs among CD4+ T cells in the brain [1, 3]	numbers of CD45high/CD11bhigh mo-MΦ and CD4+ T cells in brain parenchyma [1, 3]	CP mRNA expression of leukocyte trafficking molecules (icam1, cxcl10, ccl2) ([2]; AD-Tg/DTR+ vs DTx-treated AD-Tg/DTR− littermates, 1 day after last DTx injection)	numbers of CD11bhighCD45high-expressing cells in the hippocampus ([1]; weekly-GA, AD-Tg non-chimeric mice, 2nd week of regimen)	CP epithelial expression of leukocyte trafficking molecules (icam1, cxcl10, ccl2) ([2]; weekly-GA, AD-Tg mice, end of 1st or 4th week)
Diphtheria toxin [DTx]	marked enrichment	increased numbers; also recorded: elevated numbers	elevated mRNA expression		
Glatiramer acetate [GA]				increased numbers	upregulated epithelial expression of leukocyte trafficking molecules
